Experimental data reported in ChEMBL document CHEMBL4308871, “Design, synthesis and in vitro evaluation of stilbene derivatives as novel LSD1 inhibitors for AML therapy” (Bioorg Med Chem, 2018).

Columns and labels:
MOLM-13 = experiment: cells; conditions: Homo sapiens, MOLM-13, 192 h
MV4-11 = experiment: cells; conditions: Homo sapiens, MV4-11, 192 h
[1] = target: T1, Amine oxidase [flavin-containing] B (Homo sapiens, UniProt P27338)
T1 sequence (P27338 whole entry): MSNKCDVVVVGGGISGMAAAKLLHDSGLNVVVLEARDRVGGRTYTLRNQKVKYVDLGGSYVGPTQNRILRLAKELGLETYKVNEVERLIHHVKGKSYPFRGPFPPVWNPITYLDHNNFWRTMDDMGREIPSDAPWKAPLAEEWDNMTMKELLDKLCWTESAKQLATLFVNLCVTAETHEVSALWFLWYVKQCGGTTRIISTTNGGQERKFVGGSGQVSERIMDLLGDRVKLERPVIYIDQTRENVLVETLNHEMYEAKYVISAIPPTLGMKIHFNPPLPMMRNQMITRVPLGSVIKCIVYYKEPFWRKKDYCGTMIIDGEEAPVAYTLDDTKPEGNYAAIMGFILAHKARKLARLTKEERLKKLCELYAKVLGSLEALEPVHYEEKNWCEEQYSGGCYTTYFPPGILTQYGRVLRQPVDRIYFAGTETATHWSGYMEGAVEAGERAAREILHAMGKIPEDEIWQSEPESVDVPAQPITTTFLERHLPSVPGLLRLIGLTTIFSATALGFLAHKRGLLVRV

[2] = target: T2, Amine oxidase [flavin-containing] A (Homo sapiens, UniProt P21397); experiment: Inhibition of MAO-A (unknown origin) using (4S)-4,5-dihydro-2-(6-hydroxybenzothiazolyl)-4-thiazolecarboxylic acid as substrate by MAO-Glo assay
T2 sequence (P21397 whole entry): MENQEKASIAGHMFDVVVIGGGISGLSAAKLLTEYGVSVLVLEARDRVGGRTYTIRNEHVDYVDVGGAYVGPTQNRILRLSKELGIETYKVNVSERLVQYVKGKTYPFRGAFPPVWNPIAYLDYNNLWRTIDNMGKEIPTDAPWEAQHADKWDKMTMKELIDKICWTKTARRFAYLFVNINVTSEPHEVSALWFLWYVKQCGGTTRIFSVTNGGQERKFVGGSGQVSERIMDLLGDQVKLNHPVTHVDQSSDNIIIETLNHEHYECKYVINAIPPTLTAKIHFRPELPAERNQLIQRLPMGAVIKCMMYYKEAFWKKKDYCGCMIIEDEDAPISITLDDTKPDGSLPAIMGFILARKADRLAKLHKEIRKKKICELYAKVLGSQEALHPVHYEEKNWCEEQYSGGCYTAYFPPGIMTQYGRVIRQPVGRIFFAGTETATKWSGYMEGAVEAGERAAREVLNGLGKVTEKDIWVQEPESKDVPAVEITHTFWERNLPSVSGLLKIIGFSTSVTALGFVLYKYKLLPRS

THP-1 [3] = experiment: cells; conditions: Homo sapiens, THP-1, 192 h
[4] = target: Lysine-specific histone demethylase 1A (Homo sapiens, UniProt O60341); experiment: Inhibition of full length LSD1 (unknown origin) expressed in Escherichia coli BL21 (DE) using H3K4me2 peptide as substrate after 30 mins by fluorescence assay
THP-1 [5] = experiment: Induction of morphological changes in human THP1 cells assessed as chromatin shrinkage after 3 days by H and E staining based assay; format: functional, cell-based
THP-1 [6] = experiment: Induction of morphological changes in human THP1 cells assessed as blurred cell membrane boundaries after 3 days by H and E staining based assay; format: functional
THP-1 [7] = experiment: Inhibition of colony formation in human THP1 cells after 14 days by DAPI staining-based microscopic analysis; format: functional, cell-based

What does the source list for N/C(=N\O)c1cccc(/C=C/c2ccc(O)c(-c3ccccn3)c2)c1?
IC50 (MOLM-13): 22.6 µM; IC50 (MV4-11): 4.71 µM; IC50 [1]: > 50 µM; IC50 [2]: > 50 µM; IC50 (THP-1 [3]): 7.89 µM

Which IC50 (MOLM-13) does the source give for N/C(=N\O)c1cccc(/C=C/c2ccnc(-c3ccccc3O)c2)c1 here?
Its IC50 is 9.05 µM.

What about the IC50 (MV4-11) of the same molecule?
Its IC50 is 15.8 µM.

And the IC50 [1]?
Its IC50 is > 50 µM.

And the IC50 [2]?
The IC50 was > 50 µM.

What about the IC50 (THP-1 [3]) of the same molecule?
The IC50 was 13.7 µM.

How did the IC50 (THP-1 [3]) turn out when N[C@H]1CC[C@H](N[C@@H]2C[C@H]2c2ccccc2)CC1 was run?
Its IC50 is > 20 µM.

For Nc1cccc(/C=C/c2ccc(O)c(-c3ccccn3)c2)c1, which IC50 (MOLM-13) is on record?
The IC50 was 12.5 µM.

What about the IC50 (MV4-11) of the same molecule?
The IC50 was 10.9 µM.

What about the IC50 [1] of the same molecule?
The IC50 was > 50 µM.

What about the IC50 [2] of the same molecule?
Its IC50 is > 50 µM.

And the IC50 [4]?
The IC50 was 0.301 µM.

What about the IC50 (THP-1 [3]) of the same molecule?
The IC50 was 10.5 µM.

For N/C(=N\O)c1cccc(/C=C/c2ccnc(-c3cc(F)ccc3O)c2)c1, which IC50 (MOLM-13) is on record?
The IC50 was 8.34 µM.

And the IC50 (MV4-11)?
Its IC50 is 7.49 µM.

What about the IC50 [1] of the same molecule?
The IC50 was > 50 µM.

And the IC50 [2]?
Its IC50 is > 50 µM.

And the Activity (THP-1 [5])?
Its Activity is “Dose-dependent effect”.

And the Activity (THP-1 [6])?
Its Activity is “Dose-dependent effect”.

And the inhibition (THP-1 [7])?
The inhibition was “Dose-dependent effect”.

And the IC50 (THP-1 [3])?
The IC50 was 5.76 µM.
